Patent publication US10106524B2, “2,3,4,5-tetrahydropyridin-6-amine and 3,4-dihydro-2H-pyrrol-5-amine compound inhibitors of beta-secretase” (Janssen Pharmaceutica NV, priority 2015, dated 2018)

What was measured:
[1] = target: T1, recombinant BACE1 protein (Homo sapiens, UniProt P56817); experiment: BACE1 biochemical FRET based assay - Method 2; conditions: BACE1 0.04 μg/ml, 450 minutes, 20 μM substrate, pH 5.0; for IC50: read-out: Biochemical FRET based assay- Method 2 pIC50 (converted)
T1 construct: recombinant BACE1 protein in a final concentration of 1 μg/ml
From the text: BACE1 Biochemical FRET Based Assay
(§1) This assay is a Fluorescence Resonance Energy Transfer Assay (FRET) based assay. The substrate for this assay is an APP derived 13 amino acids peptide that contains the ‘Swedish’ Lys-Met/Asn-Leu mutation of the amyloid precursor protein (APP) beta-secretase cleavage site. This substrate also contains two fluorophores: (7-methoxycoumarin-4-yl) acetic acid (Mca) is a fluorescent donor with excitation wavelength at 320 nm and emission at 405 nm and 2,4-Dinitrophenyl (Dnp) is a proprietary quencher acceptor. […] Upon cleavage by BACE1, the fluorophore Mca is separated from the quenching group Dnp, restoring the full fluorescence yield of the donor. The increase in fluorescence is linearly related to the rate of proteolysis.
Briefly in a 384-well format recombinant BACE1 protein in a final concentration of 0.04 μg/ml is incubated for 450 minutes at room temperature with 20 μM substrate in incubation buffer (50 mM Citrate buffer pH 5.0, 0.05% PEG) in the presence of compound or DMSO. Next the amount of proteolysis is directly measured by fluorescence measurement (excitation at 320 nm and emission at 405 nm) at different incubation times (0, 30, 60, 90, 120 and 450 min). For every experiment a time curve (every 30 min between 0 min and 120 min) is used to determine the time where we find the lowest basal signal of the high control. The signal at this time (Tx) is used to subtract from the signal at 450 min. Results are expressed in RFU, as difference between T450 and Tx.
(§2) A best-fit curve is fitted by a minimum sum of squares method to the plot of % Controlmin versus compound concentration. From this an IC50 value (inhibitory concentration causing 50% inhibition of activity) can be obtained.

[2] = target: T2, recombinant BACE2 protein (Homo sapiens, UniProt Q9Y5Z0); experiment: BACE2 biochemical FRET based assay; conditions: BACE2 0.4 μg/nil, 450 minutes, 10 μM substrate, pH 5.0; for IC50: read-out: Biochemical FRET based assay pIC50 (BACE2) (converted)
T2 construct: recombinant BACE2 protein in a final concentration of 0.4 μg/nil
T2 sequence (Q9Y5Z0 63-518): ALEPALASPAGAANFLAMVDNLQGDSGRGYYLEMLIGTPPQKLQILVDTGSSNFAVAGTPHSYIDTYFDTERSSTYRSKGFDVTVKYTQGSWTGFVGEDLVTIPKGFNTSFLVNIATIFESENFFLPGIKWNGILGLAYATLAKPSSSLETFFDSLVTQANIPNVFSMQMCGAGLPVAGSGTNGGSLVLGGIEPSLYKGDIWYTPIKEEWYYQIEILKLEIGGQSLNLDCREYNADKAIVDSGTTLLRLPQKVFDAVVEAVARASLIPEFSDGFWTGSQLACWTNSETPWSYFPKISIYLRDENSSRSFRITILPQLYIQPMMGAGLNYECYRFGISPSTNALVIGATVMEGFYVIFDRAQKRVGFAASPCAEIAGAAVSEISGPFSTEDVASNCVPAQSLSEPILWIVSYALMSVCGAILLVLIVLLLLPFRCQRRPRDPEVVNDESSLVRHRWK
From the text: BACE2 Biochemical FRET Based Assay
as §1, with “assay” for “assay is an APP derived 13 amino acids peptide that”, “the beta-secretase,” for “BACE1,”
Briefly in a 384-well format recombinant BACE2 protein in a final concentration of […] is incubated for 450 minutes at room temperature with 10 μM substrate in incubation buffer (50 mM Citrate buffer pH 5.0, 0.05% PEG, no DMSO) in the absence or presence of compound. Next the amount of proteolysis is directly measured by fluorescence measurement at T=0 and T=450 (excitation at 320 nm and emission at 405 nm). Results are expressed in RFU (Relative Fluorescence Units), as difference between T450 and T0.
as §2

[3] = tested on: Abeta 1-42 produced and secreted by SKNBE2 cells expressing hAPP695; experiment: Cellular αLisa assay in SKNBE2 cells - Abeta 42; assay type: cell-based, human; conditions: incubated for 18 hours; for IC50: Homo sapiens, read-out: Cellular αLisa assay in SKNBE2 cells Abeta 42 pIC50 (converted)
Experimental: Cellular αLisa Assay in SKNBE2 Cells
In two αLisa assays the levels of Abeta total and Abeta 1-42 produced and secreted into the medium of human neuroblastoma SKNBE2 cells are quantified. The assay is based on the human neuroblastoma SKNBE2 expressing the wild type Amyloid Precursor Protein (hAPP695). The compounds are diluted and added to these cells, incubated for 18 hours and then measurements of Abeta 1-42 and Abeta total are taken. Abeta total and Abeta 1-42 are measured by sandwich αLisa. αLisa is a sandwich assay using biotinylated antibody AbN/25 attached to streptavidin coated beads and antibody Ab4G8 or cAb42/26 conjugated acceptor beads for the detection of Abeta total and Abeta 1-42 respectively. In the presence of Abeta total or Abeta 1-42, the beads come into close proximity. The excitation of the donor beads provokes the release of singlet oxygen molecules that trigger a cascade of energy transfer in the acceptor beads, resulting in light emission. Light emission is measured after 1 hour incubation (excitation at […] and emission at 615 nm).
as §2

T1 sequence (P56817 46-501): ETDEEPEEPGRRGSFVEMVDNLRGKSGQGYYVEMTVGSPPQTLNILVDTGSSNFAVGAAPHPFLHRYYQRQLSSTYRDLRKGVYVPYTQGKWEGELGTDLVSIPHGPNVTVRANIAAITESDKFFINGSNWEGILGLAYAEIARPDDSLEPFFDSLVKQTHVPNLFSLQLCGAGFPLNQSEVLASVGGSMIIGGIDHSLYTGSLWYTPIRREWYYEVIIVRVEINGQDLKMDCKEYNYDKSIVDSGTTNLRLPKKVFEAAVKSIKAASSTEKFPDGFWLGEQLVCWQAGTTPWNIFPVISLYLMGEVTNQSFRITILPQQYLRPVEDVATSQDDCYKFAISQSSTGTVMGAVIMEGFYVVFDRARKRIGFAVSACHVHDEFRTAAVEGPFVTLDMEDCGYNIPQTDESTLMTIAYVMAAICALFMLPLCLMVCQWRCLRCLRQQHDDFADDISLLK

Molecule	IC50 [1]	IC50 [2]	IC50 [3]	Biochemical FRET based assay- Method 2 pIC50 [1]	Biochemical FRET based assay pIC50 (BACE2) [2]	Cellular αLisa assay in SKNBE2 cells Abeta 42 pIC50 [3]
COCCOc1cnc(C(=O)Nc2ccc(F)c([C@@]3(C)N=C(N)C[C@H]3C(F)(F)F)c2)cn1 [Compound 30, N-[3-[(2S,3R)-5-amino-2-methyl-3-(trifluoromethyl)-3,4-dihydropyrrol-2-yl]-4-fluoro-phenyl]-5-(2-methoxyethoxy)pyrazine-2-carboxamide]	> 10000 nM	> 20000 nM	> 8910 nM	–	–	–
C[C@@]1(c2cc(NC(=O)c3cnc(OCC(F)(F)F)cn3)ccc2F)N=C(N)C[C@@H]1C(F)(F)F [Compound 31, N-[3-[(2R,3S)-5-amino-2-methyl-3-(trifluoromethyl)-3,4-dihydropyrrol-2-yl]-4-fluoro-phenyl]-5-(2,2,2-trifluoroethoxy)pyrazine-2-carboxamide]	457 nM	> 20000 nM	257 nM	–	–	–
C[C@]1(c2cc(NC(=O)c3ccc(C#N)cn3)ccc2F)N=C(N)C[C@H]1C(F)(F)F [Compound 26, N-[3-[(2S,3R)-5-amino-2-methyl-3-(trifluoromethyl)-3,4-dihydropyrrol-2-yl]-4-fluoro-phenyl]-5-cyano-pyridine-2-carboxamide]	> 10000 nM	> 10000 nM	> 8910 nM	–	–	–
C[C@@]1(c2cc(NC(=O)c3ccc(C#N)cn3)ccc2F)N=C(N)C[C@@H]1C(F)(F)F [Compound 25, N-[3-[(2R,3S)-5-amino-2-methyl-3-(trifluoromethyl)-3,4-dihydropyrrol-2-yl]-4-fluoro-phenyl]-5-cyano-pyridine-2-carboxamide]	182 nM	1070 nM	60.3 nM	–	–	–
C[C@@]1(c2cc(NC(=O)c3ccc(Br)cn3)ccc2F)N=C(N)C[C@@H]1C(F)(F)F [Compound 33, N-[3-[(2R,3S)-5-amino-2-methyl-3-(trifluoromethyl)-3,4-dihydropyrrol-2-yl]-4-fluoro-phenyl]-5-bromo-pyridine-2-carboxamide]	229 nM	513 nM	36.3 nM	–	–	–
CC1(c2cc(Nc3ncccc3C#N)ccc2F)N=C(N)CC1C(F)(F)F (racemic) [Compound 22, (±)-2-[3-[(2S*,3R*)-5-amino-2-methyl-3-(trifluoromethyl)-3,4-dihydropyrrol-2-1]-4-fluoro-anilino]pyridine-3-carbonitrile]	3720 nM	≥ 10000 nM	776 nM	–	–	–
COc1cnc(C(=O)Nc2ccc(F)c([C@]3(C)N=C(N)C[C@@H]3C(F)(F)F)c2)cn1 [Compound 27, N-[3-[(2R,3S)-5-amino-2-methyl-3-(trifluoromethyl)-3,4-dihydropyrrol-2-yl]-4-fluoro-phenyl]-5-methoxy-pyrazine-2-carboxamide]	389 nM	5890 nM	100 nM	–	–	–
COc1cccnc1Nc1ccc(F)c([C@]2(C)N=C(N)C[C@@H]2C(F)(F)F)c1 [Compound 28, N-[3-[(2R,3S)-5-amino-2-methyl-3-(trifluoromethyl)-3,4-dihydropyrrol-2-yl]-4-fluoro-phenyl]-3-methoxy-pyridin-2-amine]	1200 nM	617 nM	347 nM	–	–	–
C[C@]1(c2cc(NC(=O)c3cnc(OCC(F)(F)F)cn3)ccc2F)N=C(N)C[C@H]1C(F)(F)F [Compound 32, N-[3-[(2S,3R)-5-amino-2-methyl-3-(trifluoromethyl)-3,4-dihydropyrrol-2-yl]-4-fluoro-phenyl]-5-(2,2,2-trifluoroethoxy)pyrazine-2-carboxamide]	> 10000 nM	> 20000 nM	> 8910 nM	–	–	–
(±)-N-[3-[(2S*,3R*)-5-amino-2-methyl-3-(trifluoromethyl)-3,4-dihydropyrrol-2-yl]-4-fluoro-phenyl]-5-(2,2,2-trifluoroethoxy)pyrazine-2-carboxamide [Compound 24]	–	–	–	6.10	<5	6.38

Second part, led by results:

IC50 [1]	IC50 [2]	IC50 [3]	Molecule	Biochemical FRET based assay- Method 2 pIC50 [1]	Biochemical FRET based assay pIC50 (BACE2) [2]	Cellular αLisa assay in SKNBE2 cells Abeta 42 pIC50 [3]
> 10000 nM	–	–	C[C@]1(c2cc(NC(=O)c3ccc(Br)cn3)ccc2F)N=C(N)C[C@H]1C(F)(F)F [Compound 41, N-[3-[(2S,3R)-5-amino-2-methyl-3-(trifluoromethyl)-3,4-dihydropyrrol-2-yl]-4-fluoro-phenyl]-5-bromo-pyridine-2-carboxamide]	–	–	–
> 10000 nM	–	–	COc1cnc(C(=O)Nc2ccc(F)c([C@@]3(C)N=C(N)C[C@H]3C(F)(F)F)c2)cn1 [Compound 34, N-[3-[(2S,3R)-5-amino-2-methyl-3-(trifluoromethyl)-3,4-dihydropyrrol-2-yl]-4-fluoro-phenyl]-5-methoxy-pyrazine-2-carboxamide]	–	–	–
> 10000 nM	–	–	C[C@]1(c2cc(Nc3ncccc3C#N)ccc2F)N=C(N)C[C@H]1C(F)(F)F [Compound 38, 2-[3-[(2S,3R)-5-amino-2-methyl-3-(trifluoromethyl)-3,4-dihydropyrrol-2-yl]-4-fluoro-anilino]pyridine-3-carbonitrile]	–	–	–
> 10000 nM	–	–	Cc1nc(C(=O)Nc2ccc(F)c([C@]3(C)N=C(N)C[C@@H]3C(F)(F)F)c2)co1 [Compound 35, N-[3-[(2R,3S)-5-amino-2-methyl-3-(trifluoromethyl)-3,4-dihydropyrrol-2-yl]-4-fluoro-phenyl]-2-methyl-oxazole-4-carboxamide]	–	–	–
> 10000 nM	–	–	COc1cccnc1Nc1ccc(F)c([C@@]2(C)N=C(N)C[C@H]2C(F)(F)F)c1 [Compound 37, N-[3-[(2S,3R)-5-amino-2-methyl-3-(trifluoromethyl)-3,4-dihydropyrrol-2-yl]-4-fluoro-phenyl]-3-methoxy-pyridin-2-amine]	–	–	–
2950 nM	–	–	C[C@@]1(c2cc(Nc3ncccc3C#N)ccc2F)N=C(N)C[C@@H]1C(F)(F)F [Compound 39, 2-[3-[(2R,3S)-5-amino-2-methyl-3-(trifluoromethyl)-3,4-dihydropyrrol-2-yl]-4-fluoro-anilino]pyridine-3-carbonitrile]	–	–	–
1020 nM	–	–	Cc1nc(C(=O)Nc2ccc(F)c([C@@]3(C)N=C(N)C[C@H]3C(F)(F)F)c2)co1 [Compound 36, N-[3-[(2S,3R)-5-amino-2-methyl-3-(trifluoromethyl)-3,4-dihydropyrrol-2-yl]-4-fluoro-phenyl]-2-methyl-oxazole-4-carboxamide]	–	–	–
